According to patent US20230277569A1, “Compositions and Methods for Treating, Ameliorating and/or Preventing Cancer and Kits for the Same” (priority 2022, published 2023):

Legend:
Human Kir2.1 = Human Kir2.1 (Homo sapiens, UniProt P63252); test: Ion channel screening, Kir2.1; format: cell-based; details: n=15, pulse 10, read-out: inhibition of Kir2.1 currents
Text: The parameter measured was the maximum outward current evoked on stepping to +60 mV from the holding potential of −80 mV. hERG currents were evoked by a three-pulse protocol where voltage was first stepped to +40 mV for two sec from a holding potential of −80 mV to inactivate hERG channels. The voltage is then stepped back to −50 mV for two sec to evoke a tail current prior to returning to the holding potential for 1 sec. The parameter measured was the amplitude of the 3rd pulse tail current upon stepping back to −50 mV after the step to +40 mV. Human HCN4 currents were evoked by a single pulse from a holding potential of −30 mV to a potential of −110 mV for 4 sec prior to returning to −30 mV. The parameter measured was the maximum inward current evoked upon stepping to −110 mV from the holding potential of −30 mV. Human Kir2.1 currents were evoked from a holding potential of −20 mV by a series of 10 500 msec pulses to −120 mV using a 200 msec interval between pulses. The parameters measured were the amplitudes of the instantaneous inward currents evoked on stepping to −120 mV for the 1st pulse and the maximum inward current at the end of the 10th hyperpolarizing pulse. For all experiments, data were filtered for seal quality, seal drop, and current amplitude.

[1] = test system: colon adenocarcinoma cell lines; details: colon adenocarcinoma lines of NCI 60 screen; read-out: IC50 anticancer activity; cited from earlier work
[2] = Stability and particle size distribution of Gamitrinib Injectable Suspension (GIS); format: physicochemical
Method: A sequential three-step process was utilized to prepare Good Laboratory Practice (GLP) working solutions of Gamitrinib (5 mg/mL) for preclinical studies. The formulation workflow is as follows: Step 1—Solubilization of Gamitrinib powder in DMSO (2.5%); […] Step 3—Dilution in 5% dextrose (87.5%). […] For Good Manufacturing Practice (GMP) studies, a Gamitrinib Injectable Suspension (GIS) was prepared by microfluidization. Gamitrinib stock solutions prepared as above were passed through a microfluidizer (Dyhydromatics, Acton, Mass.) with rate of flow set at low, medium, and high. At the end of GIS processing, microfluidization was continued at reduced pressure (2000 psi) for 1-2 min. […] Gamitrinib is formulated using a three-step dilution process described in the Materials and Methods section. A sterile, Gamitrinib Injectable Suspension (GIS) is prepared for clinical use using microfluidization with the schematic flowchart shown in FIG. 5B.

KCNQ1/minK = KCNQ1/minK (Homo sapiens, UniProt P51787); test: Ion channel screening, KCNQ1/minK; format: cell-based; details: n=16, read-out: inhibition of KCNQ1/mink currents
Text: (§1) The parameters measured were the maximum inward current evoked on stepping to −20 mV from the 1st and 26th pulse. Human Kv4.3/KChIP2 currents were evoked from a holding potential of −80 mV by a series of four 500 msec pulses to 0 mV using a 1000 msec interval between pulses. The parameter measured was the amplitude of the outward current 50 msec after the onset of the 4th voltage step to 0 mV. Human Cav1.2 currents were evoked by 2 pulses to −10 mV from a holding potential of −100 mV. The parameters measured were the maximum inward currents evoked on stepping to −10 mV from the holding potential of −100 mV for the 1st and 2nd pulse. Human Kv1.5 currents were evoked by a single pulse from a holding potential of −80 mV to a potential of 0 mV for 4 sec before returning to −80 mV. The parameters measured were the maximum amplitude of outward currents evoked at the beginning of the voltage pulse and at the end of the voltage step from −80 mV to 0 mV. Human KCNQ1/minK currents were evoked by a single pulse delivered from a holding potential of −80 mV to +60 mV for 4 sec before returning to −80 mV. The parameter measured was the maximum outward current evoked on stepping to +60 mV from the holding potential of −80 mV. hERG currents were evoked by a three-pulse protocol where voltage was first stepped to +40 mV for two sec from a holding potential of −80 mV to inactivate hERG channels. […]

hERG = target: T1, hERG (Homo sapiens, UniProt Q12809); test: Patch clamp recording of hERG currents in transfected HEK293 cells; format: cell-based
T1 construct: expressed in transfected cells; host or cells: HEK293 (ATCC), polyclonal, stably transfected, G418 selection
T1 sequence (Q12809 whole entry): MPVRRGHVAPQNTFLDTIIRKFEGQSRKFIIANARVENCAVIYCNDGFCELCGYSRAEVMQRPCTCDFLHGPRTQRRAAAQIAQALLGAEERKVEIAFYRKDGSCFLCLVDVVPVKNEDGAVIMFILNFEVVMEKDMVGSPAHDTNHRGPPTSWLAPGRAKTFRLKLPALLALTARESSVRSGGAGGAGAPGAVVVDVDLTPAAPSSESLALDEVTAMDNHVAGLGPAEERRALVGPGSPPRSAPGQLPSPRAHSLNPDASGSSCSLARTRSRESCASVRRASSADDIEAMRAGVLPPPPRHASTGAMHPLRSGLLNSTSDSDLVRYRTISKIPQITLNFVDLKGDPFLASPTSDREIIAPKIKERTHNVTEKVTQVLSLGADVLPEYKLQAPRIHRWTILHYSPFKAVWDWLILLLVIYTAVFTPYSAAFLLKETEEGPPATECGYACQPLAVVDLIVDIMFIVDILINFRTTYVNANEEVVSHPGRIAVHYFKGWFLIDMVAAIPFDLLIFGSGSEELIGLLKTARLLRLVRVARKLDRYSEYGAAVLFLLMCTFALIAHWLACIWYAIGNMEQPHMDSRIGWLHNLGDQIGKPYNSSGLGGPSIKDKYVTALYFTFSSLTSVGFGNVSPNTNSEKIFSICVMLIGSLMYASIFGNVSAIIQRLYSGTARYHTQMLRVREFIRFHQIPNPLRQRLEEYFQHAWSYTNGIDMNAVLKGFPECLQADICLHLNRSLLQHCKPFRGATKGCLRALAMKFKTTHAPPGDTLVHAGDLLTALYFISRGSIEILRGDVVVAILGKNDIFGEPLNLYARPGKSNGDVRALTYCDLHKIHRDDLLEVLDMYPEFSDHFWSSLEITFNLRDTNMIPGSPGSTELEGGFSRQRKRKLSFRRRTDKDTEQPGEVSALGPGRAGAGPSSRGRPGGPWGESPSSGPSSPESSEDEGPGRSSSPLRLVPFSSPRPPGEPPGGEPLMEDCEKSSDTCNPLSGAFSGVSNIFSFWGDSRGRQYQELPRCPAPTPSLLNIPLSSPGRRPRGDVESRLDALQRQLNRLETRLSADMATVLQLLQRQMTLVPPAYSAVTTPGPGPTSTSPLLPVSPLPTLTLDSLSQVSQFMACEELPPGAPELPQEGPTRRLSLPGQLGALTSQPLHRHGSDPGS
Method: Caco-2 and HEK293 cells were obtained from the American Type Culture Collection (ATCC, Manasass, Va.) and grown in culture according to the supplier's specifications. In some experiments, HEK293 cells were stably transfected with hERG cDNA and polyclonal cultures were maintained in the presence of 250 μg/ml geneticin (G418).
For electrophysiology recording, a micropipette was pulled from borosilicate glass with the pipette tip resistance between 3˜5 MΩ. For each experiment, polyclonal HEK293 cells stably transfected with hERG cDNA and maintained in 250 μg/ml Geneticin (G418) were plated on 35 mm dishes on the microscope stage and a commercial patch clamp amplifier was used for the whole cell recordings. The tail currents were evoked at 22° C. once every 30 sec by a 3 sec-50 mV repolarizing pulse following a 2 sec+50 mV depolarizing pulse with a hold voltage of −80 mV. A 50 msec depolarized pulse to −50 mV at the beginning of the voltage protocol served as a baseline for calculating the amplitude of the peak tail current. The hERG currents were allowed to stabilize over a 3 min period in the presence of vehicle alone prior to Gamitrinib application. The cells were kept in the test solution until the peak tail current was stable (<5% change) for ˜5 sweeps or for a maximum of 6 min, whichever came first. Peak tail amplitudes were plotted as a function of the sweep number. Five peak tail current measurements at the steady state before Gamitrinib application were averaged and used as the control current amplitude. Four or five peak tail current measurements at the steady state after Gamitrinib application were averaged and used as the remaining current amplitude after inhibition by the test article. The % inhibition of the test article was calculated from the following equation: […]

Human Kv1.5 = Human Kv1.5 (Homo sapiens, UniProt P22460); test: Ion channel screening, Kv1.5; format: cell-based; details: n=15, read-out: inhibition of Kv1.5 currents
Chain of Human Kv1.5 (P22460 whole entry): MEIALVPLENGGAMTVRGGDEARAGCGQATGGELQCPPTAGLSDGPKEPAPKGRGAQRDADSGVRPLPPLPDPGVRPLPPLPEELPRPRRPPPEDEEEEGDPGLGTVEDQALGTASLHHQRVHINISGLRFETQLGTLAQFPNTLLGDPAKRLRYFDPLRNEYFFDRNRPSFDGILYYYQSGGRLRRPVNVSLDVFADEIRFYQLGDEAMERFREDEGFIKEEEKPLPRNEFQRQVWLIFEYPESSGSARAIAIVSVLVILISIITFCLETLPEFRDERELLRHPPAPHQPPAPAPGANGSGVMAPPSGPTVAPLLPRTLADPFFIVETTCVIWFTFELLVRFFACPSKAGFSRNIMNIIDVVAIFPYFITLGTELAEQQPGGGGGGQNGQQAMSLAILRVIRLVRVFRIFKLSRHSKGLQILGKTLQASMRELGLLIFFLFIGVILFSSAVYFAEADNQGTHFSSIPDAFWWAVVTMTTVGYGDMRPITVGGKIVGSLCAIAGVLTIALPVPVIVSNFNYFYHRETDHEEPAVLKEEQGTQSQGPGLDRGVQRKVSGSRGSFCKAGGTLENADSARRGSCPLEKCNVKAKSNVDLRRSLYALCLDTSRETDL
Text: as §1

Chain of Human Kir2.1 (P63252 whole entry): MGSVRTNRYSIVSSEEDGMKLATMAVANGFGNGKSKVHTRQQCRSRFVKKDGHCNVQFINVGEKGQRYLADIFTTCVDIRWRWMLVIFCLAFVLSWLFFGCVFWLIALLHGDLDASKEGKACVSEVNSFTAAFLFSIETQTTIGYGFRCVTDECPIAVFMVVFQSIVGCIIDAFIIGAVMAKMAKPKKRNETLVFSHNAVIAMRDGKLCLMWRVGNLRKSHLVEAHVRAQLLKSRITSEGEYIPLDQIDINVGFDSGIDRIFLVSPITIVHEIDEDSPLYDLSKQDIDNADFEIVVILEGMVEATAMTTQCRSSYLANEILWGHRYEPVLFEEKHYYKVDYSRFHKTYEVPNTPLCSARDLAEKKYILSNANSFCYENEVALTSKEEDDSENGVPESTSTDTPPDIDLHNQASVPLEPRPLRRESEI

In the case of `CO[C@H]1/C=C\C=C(/C)C(=O)NC2=CC(=O)C(NCCCCCC[P+](c3ccccc3)(c3ccccc3)c3ccccc3)=C(C[C@@H](C)C[C@H](OC)[C@H](O)[C@@H](C)/C=C(\C)[C@@H]1OC(N)=O)C2=O` [Gamitrinib, 17-Demethoxy-17-((6-(triphenylphosphonio)hexyl)amino)geldanamycin], the inhibition at 10 µM (Human Kir2.1) is given as -7.3 ± 3.4%, the IC50 [1] is given as 0.35 to 29 µM and the “stable (time of storage)” value ([2]; injectable suspension at −20° C.) is given as at least 24 weeks. For the same compound, the particle size ([2]; injectable suspension produced by microfluidization) was under 200 nm, the inhibition at 10 µM (KCNQ1/minK) was 22.5 ± 1.1% and the “hERG IC50 relative to IC50 of inhibition of tumor growth in NCI 60-cell line screen” value (hERG; hERG IC50 3.5 μM higher than tumor IC50) was “up to 20 fold”. It also gave an inhibition at 0.5 µM (hERG; human, HEK293 cells stably transfected with hERG, pH 7.4, 0.5 μM, transfected HEK293 cells, mean±SD) of -0.68 ± 3.95%, an inhibition at 1 µM (hERG; human, HEK293 cells stably transfected with hERG, pH 7.4, 1 μM, transfected HEK293 cells, mean±SD) of 11.7 ± 6.51% and an inhibition at 5 µM (hERG; human, HEK293 cells stably transfected with hERG, pH 7.4, 5 μM, transfected HEK293 cells, mean±SD) of 66 ± 6.78%. It also gave an inhibition at 10 µM (hERG; human, HEK293 cells stably transfected with hERG, pH 7.4, 10 μM, transfected HEK293 cells, mean±SD) of 81.8 ± 1.88%, an IC50 (hERG; patch-clamp, transfected HEK293 cells, read-out: IC50 of hERG inhibition) of 3.5 µM and an inhibition at 10 µM (Human Kv1.5) of 6.6 ± 1.3%.
